# Measured values published in US5421897A, “Abatement process for contaminants” (priority 1992, dated 1995).
# Where two headings read alike, the source gives them in different places.
# Key:
# [1] = Time required to form solid-state, sodium silicofluoride added to Neoprene 671 latex; assay type: physicochemical
# Excerpt: If the overspray method is not preferred, an in-situ solidifying compound can be used that reduces the application process to a single step. To effect in-situ transformation from the liquid to the solid state, about 0.25 to about 6 parts of a solidifying compound such as ammonium silicofluoride, sodium silicofluoride, or potassium silicofluoride per hundred parts solid resin (phr) may be added to the liquid-state composition as a finely ground (e.g., ball milled) dispersion just prior to application.
# The time required to form a solid-state will vary according to concentration of solidifying compound and polymer type. By way of example, when sodium silicofluoride was added to Neoprene 671 latex, the following results were attained.
# [2] = C.A. 95:36562k; cited from earlier work
# [3] = C.A. 100:116031y; cited from earlier work
# [4] = 25° C.; cited from earlier work
# mus = details: scu-mus; cited from earlier work
# [5] = Copper oxide cleaning (Example 5), painted cinder block; details: weight loss
# Protocol: Samples of coarse, deep pore cinder block (2×2×1/2 inch) were sealed by spray applying a 4-7 mil wet film thickness coating of interior, semigloss alkyd paint. The coated samples were air dried at ambient temperature for 7 days and subsequently cured at 150° F. for 8 hours. A 5% dispersion of copper oxide in hexane was spray applied until the dry copper oxide up-take reached approximately 250 mg/sample. After spraying, the samples were allowed to dry at ambient temperature for 24 hours, whereupon 20-25 wet mils of the liquid-state composition were spray applied over the contaminated surfaces. After 10 minutes, the liquid-statecomposition was scrubbed into the surface using the circular action of a nylon dental brush. After 20 scrub cycles, the brush was removed, and an additional 25-30 mils wet film thickness of liquid-state composition were spray applied over the treated area. After drying for 24 hours at ambient temperature, the solid-state matrix was removed and the reverse side was inspected. […] The larger matrix projections reached 0.6 to 0.9 mm in length. […] A subtle discoloration of the white alkyd paint (graying) was noted. Weight-loss measurements indicated 78% removal of CuO. […]
# man = details: cited from earlier work
# [6] = C.A. 96:47119t, 101:189850v; cited from earlier work
# gpg [7] = details: orl-gpg; cited from earlier work
# [8] = Sax, 6th Ed., P. 347; cited from earlier work
# gpg [9] = test: Oral toxicity orl-gpg LDLo (lead toxicity mitigation); details: transformation of lead oxide to lead sulfide
# [10] = C.A. 101:205528d; cited from earlier work
# [11] = C.A. 98:100331a; cited from earlier work
# [12] = C.A. 103:136646t; cited from earlier work
# dog = details: scu-dog; cited from earlier work
molecule,measurement,setting,value
"F[Si-2](F)(F)(F)(F)F.[Na+].[Na+] [Sodium Silicofluoride, sodium silicofluoride]",Time Required to Form Solid-State,[1]; 2 phr added to Neoprene 671 latex,150 min
same,Time Required to Form Solid-State,[1]; 2.5 phr added to Neoprene 671 latex,18 min
same,Time Required to Form Solid-State,[1]; 3 phr added to Neoprene 671 latex,7 min
same,Time Required to Form Solid-State,[1]; 4 phr added to Neoprene 671 latex,5 min
"O=C(O)C(S)C(S)C(=O)O (centres unmarked) [2,3-dimercaptosuccinic acid]",antidotal activity for antimony,[2],provides antidotal activity for antimony
[SH-].[SH-].[S]=[Mo]=[S] [Tetrathiomolybdate (VI)],antidotal activity for copper,[3],provides antidotal activity for copper
Formaldehyde Hydrosulfate,Vapor pressure,[4],No vapor pressure
same,LDLo,mus,3000 mg/kg
same,toxicity grade,mus,Moderate toxicity
O=P([O-])([O-])[O-].[Na+].[Na+].[Na+] [trisodiumphosphate],removal of CuO,[5],55%
O=C([O-])[O-].O=C([O-])[O-].[OH-].[OH-].[Pb+2].[Pb+2].[Pb+2] [White lead],Symptoms,man; in vivo,Same as lead halides
same,TDLo,man; orl-man,214 mg/kg
O=P(O)(O)O[C@H]1[C@H](OP(=O)(O)O)[C@@H](OP(=O)(O)O)[C@H](OP(=O)(O)O)[C@@H](OP(=O)(O)O)[C@H]1OP(=O)(O)O [Sodium phytate],antidotal activity,[6],provides antidotal activity
lead oxide,LDLo,gpg [7],1000 mg/kg
[Cu] [Copper],TDLo,man; orl-hmn,0.12 mg/kg
C=O [Formaldehyde],Vapor pressure,[4],0.187 kPa
same,LD50,mus,300 mg/kg
same,toxicity grade,mus,Severe toxicity
Barium sulfate,acute toxicity,[8],not being acutely toxic
[S]=[Pb] [lead sulfide],LDLo,gpg [7],10 gm/Kg
same,reduction in toxicity,gpg [9],10 fold
"O=C(O)c1ccccc1C(=O)NCC(S)CS (centres unmarked) [N-(2,3-dimercaptopropyl)phthalamidic acid]",antidotal activity for sodium arcenate,[10],provides antidotal activity for sodium arcenate
"O=Cc1ccc(O)cc1O [2,4-dihydroxybenzaldehyde]",spray-on reagent for identification of arsenic III,[11],useful as a spray-on reagent for the identification of arsenic III
"O=C(O)CN(CC(=O)O)CC(=O)O [N,N-bis(carboxymethyl)glycine]",antidotal activity for chromium,[12],provides antidotal activity for chromium
[Ba] [Barium],LDLo,man; orl-hmm,11.4 mg/kg
[Cl][Pb][Cl] [Lead chloride],LDLo,gpg [7],2000 mg/kg
[Cd] [Cadmium],TCLo,man; inhl-man,40 μg/m^3
[Cr] [Chromium],LDLo,dog,330 mg/kg
[Sb] [Antimony],LDLo,man; unk.-man,15 mg/kg
